SMILES strings stand for the structures. Read-outs that look alike come from different tables or passages of the source.

Test [1] relates to TNF release from LPS-stimulated monocytes. The experiment in a line: Inhibition of TNF release from LPS-stimulated monocytes. In kind it is cell-based, human. The note with it: for IC50: Homo sapiens, Monocyte, substance alone, LPS-stimulated monocytes. As for the experimental part: EDTAized human whole blood was mixed with Hanks' buffer in the ratio 1:1. Histopaque 1077 solution (15 ml) was cautiously overlaid with max. 40 ml of the blood: Hanks' mixture and centrifuged (2000 rpm) at room temperature for 30 min. The band enriched with leukocytes was aspirated off, washed twice with Hanks' buffer and transferred into RPMI 1640 medium with Glutamax I (Gibco BRL, Eggenstein). The monocytes were removed through their adherence to the cell culture bottle over a period of two hours. The cells were then thoroughly washed with medium in order to remove non-adherent cells. The resulting monocytes were cultured in RPMI 1640 medium with 10% heat-inactivated fetal calf's serum (FCS) and 100 U/ml penicillin and 100 μg/ml streptomycin in a CO2 incubator (5% CO2, 96% relative humidity, 37° C.).
Primary monocytes were seeded in 24-well plates at 5×10^5 cells/well. The cells were preincubated with the stated test substances for 30 minutes. LPS was then added, and incubation was continued for a period of 24 h. The supernatants were aspirated off and investigated by ELISA.

Test [2] concerns GM-CSF release from LPS-stimulated monocytes. As to the kind of experiment: Inhibition of GM-CSF release from LPS-stimulated monocytes. In kind it is cell-based, human. The note with it: for IC50: Homo sapiens, Monocyte. As to the method:
Inhibition of GM-CSF Release from LPS-Stimulated Monocytes EDTAized human whole blood was mixed with Hanks' buffer in the ratio 1:1. Histopaque 1077 solution (15 ml) was cautiously overlaid with max. 40 ml of the blood: Hanks' mixture and centrifuged (2000 rpm) at room temperature for 30 min. The band enriched with leukocytes was aspirated off, washed twice with Hanks' buffer and transferred into RPMI 1640 medium with Glutamax I (Gibco BRL, Eggenstein). The monocytes were removed through their adherence to the cell culture bottle over a period of two hours. The cells were then thoroughly washed with medium in order to remove non-adherent cells. […] The cells were preincubated with the stated test substances for 30 minutes. LPS was then added, and incubation was continued for a period of 24 h. The supernatants were aspirated off and investigated by ELISA. The amount of secreted human GM-CSF in the cell culture supernatants was determined by using an OptEIA™ human GM-CSF ELISA test (Pharmingen, San Diego). It was carried out in microtiter plates. Anti-human monoclonal antibodies were coupled as antibodies to the plate at 4° C. overnight. This coating and three washes were followed by saturation of nonspecific bindings by means of assay diluent solution™ (PBS with 10% FCS, pH 7.0) (Pharmingen, San Diego) at RT for 1 h. This was followed by incubation with the samples and the standard (recombinant human GM-CSF) at 4° C. overnight. […] All the steps were followed by washing 5 or 7 times with PBS/0.05% Tween 20. The enzyme activity was determined using substrate solution™ (tetramethylbenzidine (TMB) and hydrogen peroxide, Pharmingen, San Diego) as substrate at RT for 30 min. The enzyme-substrate reaction was stopped with 1M phosphoric acid, and the extinction at 450 nm was measured.

[3] abbreviates: when 10 nM loteprednol was given simultaneously.
Setting [4] is: substance alone, LPS-stimulated primary monocytes, 24 h, read-out: IC50 for GM-CSF release from human monocytes.

Usually IC50 stands for the point on the concentration scale where inhibition reaches its midpoint. In the case of `O=C(Nc1c(Cl)cncc1Cl)C(=O)c1cn(Cc2ccc(F)cc2)c2ccc(O)cc12` [DFHO, N-(3,5-dichloropyridin-4-yl)-2-[1-(4-fluoro-benzyl)-5-hydroxyindol-3-yl]-2-oxoacetamide], the half-inhibitory concentration (IC50) in test [1] was 5.7 µM; in test [2] (addition of 10 nM loteprednol, read-out: IC50 for DFHO for GM-CSF release in the presence of loteprednol) it was 0.06 µM; in test [2] (setting [4]), 3.2 µM. Besides, the “reduction in the IC50 for TNF release” value in test [1] (setting [3]) is listed as 99%. Moreover, the “reduction in the IC50 for GM-CSF release” value in test [2] (setting [3]) is listed as 98%.

On to `CCOC(=O)O[C@]1(C(=O)OCCl)CC[C@H]2[C@@H]3CCC4=CC(=O)C=C[C@]4(C)[C@H]3[C@@H](O)C[C@@]21C` [loteprednol], for which the IC50 in test [1] turned out to be 0.0855 µM; in test [2] (addition of 5 nM DFHO, read-out: IC50 for loteprednol for GM-CSF release in the presence of DFHO) it was 0.0134 µM; in test [2] (setting [4]), 0.0537 µM. For the same molecule, the “reduction in the IC50 for TNF release” value in test [1] (when 5 nM DFHO was given) turned out to be 65%. Also, in test [2] (when 5 nM DFHO was given), the “reduction in the IC50 for GM-CSF release” value came to 75%.

For the origin of these results see US20050288265A1, “Novel combination of glucocorticoids and pde-4 inhibitors for treating respiratory diseases, allegic diseases, asthma and copd” (priority 2002, published 2005).
